Test results: patent US20040014706A1, “Use of carp inhibitors for the treatment of heart diseases” (priority 2000, published 2004)

How the values were obtained:
CARP protein [1] = assay: CARP protein levels in isolated myocytes treated with adrenoceptor agonists; type: cell-based; details: ISO 1 μM, PE 50 μM, n=4
Method: (§1) Male Wistar rats were treated with isoprenaline (ISO, 2.4 mg/kg/d, Alzet mini pump) for 4 days. Controls were infused with NaCl. […] To gain further insight into the mechanism by which CARP expression is regulated, isolated myocytes were treated with ISO (1 μM) and phenylephrine (PE, 50 μM). For comparison the effects of the alpha-adrenoceptor agonist phenylephrine (PE, 50 μM) were studied.

CARP mRNA [2] = assay: CARP mRNA expression in left ventricular myocardium of treated rats, Northern blot; type: in vivo, Male Wistar rats; details: 2.4 mg/kg/d, 4 days
Method: as §1

CARP protein [3] = assay: CARP protein in treated rats, Western blot; type: in vivo, Male Wistar rats; details: 2.4 mg/kg/d, 4 days
Method: as §1

[4] = Isoprenaline-induced cardiac hypertrophy in rats (heart weight/body weight); type: in vivo, Male Wistar rats; details: 2.4 mg/kg/d, Alzet mini pump, 4 days; vs NaCl controls
Method: as §1

CARP mRNA [5] = assay: CARP mRNA levels in isolated myocytes treated with adrenoceptor agonists and kinase inhibitors; type: cell-based; details: for CARP mRNA/GAPDH mRNA: ISO 1 μM (n=9), PE 50 μM (n=11); for reversal of the effects of ISO and PE on CARP mRNA expression: ISO 1 μM, PE 50 μM
Method: as §1

| SMILES | CARP/CSQ (CARP protein level) (CARP protein [1]) | CARP mRNA/GAPDH mRNA (CARP mRNA [5]) | reversal of the effects of ISO and PE on CARP mRNA expression (CARP mRNA [5]) | further results |
| --- | --- | --- | --- | --- |
| CC(C)NCC(O)c1ccc(O)c(O)c1 (centres unmarked) [ISO, isoprenaline] | 161±10 % of control | 148±10 % of control | – | CARP mRNA/GAPDH mRNA (CARP mRNA [2]; LV myocardium, n=6, NaCl control 1.3±0.12): 3.1±0.5; increase in CARP mRNA expression in left ventricular (LV) myocardium (CARP mRNA [2]; Northern blot, vs NaCl): 140%; increase in CARP protein (CARP protein [3]; Western blot, vs NaCl): 50%; CARP/calsequestrin (CARP protein [3]; n=6, NaCl control 0.41±0.03): 0.61±0.07; increase in heart weight/body weight ratio [4]: 40% |
| CNC[C@H](O)c1cccc(O)c1 [PE, phenylephrine] | 172±7 % of control | 178±20 % of control | – | – |
| C[S+]([O-])c1ccc(-c2nc(-c3ccncc3)c(-c3ccc(F)cc3)[nH]2)cc1 (centres unmarked) [SB203580] | – | – | not | – |
| N#CC(=C(/N)Sc1ccccc1N)/C(C#N)=C(\N)Sc1ccccc1N [U0126] | – | – | completely reversed | – |
